From paper PMC8343220, “The selectivity of α‐adrenoceptor agonists for the human α1A, α1B, and α1D‐adrenoceptors” (Pharmacology Research & Perspectives, 2021)
Several values for one entry are separate records, joined by “and”; a condition that tells them apart may be missing. Identical values can stand only once. Like-named read-outs stand apart in the source and are kept apart here.

What was measured:
human α1B‐adrenoceptor [1] = molecular target: T1, human α1B‐adrenoceptor (Homo sapiens, UniProt P35368); experiment: ^3H‐prazosin whole‐cell radioligand binding, CHO‐α1B cells; conditions: CHO‐α1B cells
T1 construct: expressed in transfected cells; host or cells: CHO-K1
T1 sequence (P35368 1-520): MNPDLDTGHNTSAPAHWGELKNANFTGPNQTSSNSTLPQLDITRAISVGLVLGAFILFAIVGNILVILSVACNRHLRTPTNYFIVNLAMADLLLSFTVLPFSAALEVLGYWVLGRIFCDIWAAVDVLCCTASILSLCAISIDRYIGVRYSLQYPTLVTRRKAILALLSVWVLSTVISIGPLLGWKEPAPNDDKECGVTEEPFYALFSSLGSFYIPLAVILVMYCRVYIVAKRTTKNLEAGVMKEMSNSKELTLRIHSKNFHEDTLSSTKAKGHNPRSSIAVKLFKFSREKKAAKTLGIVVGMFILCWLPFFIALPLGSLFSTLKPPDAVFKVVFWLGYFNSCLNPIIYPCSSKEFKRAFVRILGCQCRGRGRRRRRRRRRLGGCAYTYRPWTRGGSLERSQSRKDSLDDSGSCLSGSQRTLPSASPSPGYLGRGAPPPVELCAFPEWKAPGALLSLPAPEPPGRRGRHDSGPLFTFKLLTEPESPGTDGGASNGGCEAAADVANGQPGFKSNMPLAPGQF

[2] = molecular target: T2, human α1D‐adrenoceptor (full length) (Homo sapiens, UniProt P25100); experiment: ^3H‐prazosin whole‐cell radioligand binding, CHO‐α1D cells; conditions: for 3H‐prazosin binding Log KD: whole‐cell binding (from Table 1), log values given negative
T2 construct: human α1D‐adrenoceptor (full length) were used; expressed in transfected cells; host or cells: CHO-K1
T2 sequence (P25100 1-572): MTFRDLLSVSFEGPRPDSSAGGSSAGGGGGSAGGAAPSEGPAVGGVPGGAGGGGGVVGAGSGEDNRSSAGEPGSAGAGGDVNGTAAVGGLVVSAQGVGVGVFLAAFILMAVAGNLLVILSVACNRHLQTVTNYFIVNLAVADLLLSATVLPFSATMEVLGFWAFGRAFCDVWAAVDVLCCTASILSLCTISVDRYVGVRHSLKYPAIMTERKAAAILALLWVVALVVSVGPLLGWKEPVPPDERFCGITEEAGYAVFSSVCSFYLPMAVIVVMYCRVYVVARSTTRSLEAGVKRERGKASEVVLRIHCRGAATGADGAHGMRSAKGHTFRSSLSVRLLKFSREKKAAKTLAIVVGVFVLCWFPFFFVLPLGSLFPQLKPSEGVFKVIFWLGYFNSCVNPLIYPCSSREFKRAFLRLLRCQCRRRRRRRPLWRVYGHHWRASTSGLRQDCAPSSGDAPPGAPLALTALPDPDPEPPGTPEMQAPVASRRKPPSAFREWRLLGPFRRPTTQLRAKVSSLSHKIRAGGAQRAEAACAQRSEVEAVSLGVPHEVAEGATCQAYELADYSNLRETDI

human α1A‐adrenoceptor [3] = molecular target: T3, human α1A‐adrenoceptor (Homo sapiens, UniProt P35348); experiment: Intracellular free calcium mobilization, CHO‐α1A cells; assay type: cell-based; conditions: CHO‐α1A cells; for Intracellular calcium release % ionomycin: maximal response as % of 10 µM ionomycin
T3 construct: expressed in transfected cells; host or cells: CHO-K1
T3 sequence (P35348 1-466): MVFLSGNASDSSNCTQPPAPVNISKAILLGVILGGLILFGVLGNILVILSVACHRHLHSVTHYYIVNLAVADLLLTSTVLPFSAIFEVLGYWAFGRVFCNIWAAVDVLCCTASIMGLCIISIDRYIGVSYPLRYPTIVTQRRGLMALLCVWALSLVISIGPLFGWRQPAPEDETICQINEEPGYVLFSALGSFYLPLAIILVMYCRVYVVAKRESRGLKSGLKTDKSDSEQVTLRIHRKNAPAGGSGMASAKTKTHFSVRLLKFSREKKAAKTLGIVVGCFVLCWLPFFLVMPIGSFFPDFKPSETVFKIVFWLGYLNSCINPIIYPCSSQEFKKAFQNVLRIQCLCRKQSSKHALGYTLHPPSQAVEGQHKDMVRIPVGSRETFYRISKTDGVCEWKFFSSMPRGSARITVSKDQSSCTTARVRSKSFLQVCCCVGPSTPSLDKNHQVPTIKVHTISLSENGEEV

human α1B‐adrenoceptor [4] = molecular target: T1, human α1B‐adrenoceptor; experiment: Intracellular free calcium mobilization, CHO‐α1B cells; assay type: cell-based; conditions: CHO‐α1B cells; for Intracellular calcium release Log EC50: given as log EC50 (negative numbers); for Intracellular calcium release % ionomycin: maximal response as % of 10 µM ionomycin response
[5] = molecular target: T2, human α1D‐adrenoceptor (full length); experiment: Intracellular free calcium mobilization, CHO‐α1D cells; assay type: cell-based; conditions: CHO‐α1D cells; for Intracellular calcium release % ionomycin: maximal response as % of 10 µM ionomycin
human α1A‐adrenoceptor [6] = molecular target: T3, human α1A‐adrenoceptor; experiment: ERK1/2‐phosphorylation (Surefire Alphascreen), CHO‐α1A cells; assay type: cell-based; conditions: CHO‐α1A cells, ^a bi‐phasic: initial stimulatory part; for ERK1/2‐phosphorylation % PDBu: % of 10 µM PDBu
human α1B‐adrenoceptor [7] = molecular target: T1, human α1B‐adrenoceptor; experiment: ERK1/2‐phosphorylation (Surefire Alphascreen), CHO‐α1B cells; assay type: cell-based
[8] = molecular target: T2, human α1D‐adrenoceptor (full length); experiment: ERK1/2‐phosphorylation (Surefire Alphascreen), CHO‐α1D cells; assay type: cell-based; conditions: CHO‐α1D cells; for ERK1/2‐phosphorylation % PDBu: maximal response as % of PDBu
[9] = test system: parental CHO cell line without any transfected receptors; experiment: ERK1/2‐phosphorylation, parent CHO cells without transfected receptors; assay type: cell-based, Chinese hamster; conditions: CHO cells without transfected receptors; maximal response as % of PDBu (10μM) response; mean ± s.e.m.
human α1A‐adrenoceptor [10] = molecular target: T3, human α1A‐adrenoceptor; experiment: ^3H‐cAMP accumulation, CHO‐α1A cells; assay type: cell-based; conditions: CHO‐α1A cells; for cAMP accumulation % forskolin: % of 10 µM forskolin response
human α1B‐adrenoceptor [11] = molecular target: T1, human α1B‐adrenoceptor; experiment: ^3H‐cAMP accumulation, CHO‐α1B cells; assay type: cell-based; conditions: CHO‐α1B cells; for cAMP accumulation % forskolin: % forskolin maximum response
[12] = molecular target: T2, human α1D‐adrenoceptor (full length); experiment: ^3H‐cAMP accumulation, CHO‐α1D cells; assay type: cell-based; conditions: cAMP accumulation without forskolin
human α1B‐adrenoceptor [13] = molecular target: T1, human α1B‐adrenoceptor; experiment: ^3H‐cAMP accumulation in the presence of 10 μM forskolin, CHO‐α1B cells; assay type: cell-based; conditions: CHO‐α1B cells
[14] = molecular target: T2, human α1D‐adrenoceptor (full length); experiment: ^3H‐cAMP accumulation in the presence of 10 μM forskolin, CHO‐α1D cells; assay type: cell-based; conditions: CHO‐α1D cells
[15] = test system: parental CHO cell line without any transfected receptors; experiment: Forskolin‐stimulated cAMP accumulation, parent CHO cells without transfected receptors; assay type: cell-based, Chinese hamster; conditions: CHO cells without transfected receptors; in presence of forskolin
human α1A‐adrenoceptor [16] = molecular target: T3, human α1A‐adrenoceptor; experiment: ^3H‐cAMP accumulation in the presence of 10 μM forskolin, CHO‐α1A cells; assay type: cell-based
human α1A‐adrenoceptor [17] = molecular target: T3, human α1A‐adrenoceptor; experiment: ^3H‐prazosin whole‐cell radioligand binding, CHO‐α1A cells
[18] = CHO‐α1D cells, given as log KD (negative), mean ± SEM, 'early plateau' = specific binding not fully inhibited
[19] = CHO‐α1B cells, maximal response as % PDBu response, for bi‐phasic responses the initial stimulatory part
[20] = in presence of forskolin, log values given negative
[21] = fold increase of the forskolin response

Row | SMILES | 3H‐prazosin binding Log KD ([2]; CHO‐α1D cells) | Log KD α1D, ^3H‐prazosin whole cell binding [2, 18] | Intracellular calcium release % ionomycin (human α1A‐adrenoceptor [3]) [%] | Intracellular calcium release Log EC50 (human α1B‐adrenoceptor [4]) | Intracellular calcium release % ionomycin (human α1B‐adrenoceptor [4]) [%] | Intracellular calcium release Log EC50 ([5]; log values given negative) | Intracellular calcium release % ionomycin [5] [%] | ERK1/2‐phosphorylation % PDBu (human α1A‐adrenoceptor [6]) | ERK1/2‐phosphorylation % PDBu (human α1B‐adrenoceptor [7]; [19]) [%] | ERK1/2-phosphorylation % PDBu [9] | cAMP accumulation % forskolin (human α1A‐adrenoceptor [10]) | cAMP accumulation Log EC50 (human α1B‐adrenoceptor [11]) | cAMP accumulation % forskolin (human α1B‐adrenoceptor [11]) [%] | cAMP Log EC50 [12] | cAMP accumulation (in presence of forskolin) Log EC50 (human α1B‐adrenoceptor [13]) | cAMP (in presence of forskolin) Log EC50 [14, 20] | cAMP accumulation (in presence of forskolin) Log EC50 [15] | ERK1/2‐phosphorylation % PDBu [8] [%] | also measured
1 | CS(=O)(=O)Nc1c(O)ccc2c1CCCC2C1=NCCN1 (stereo not shown) [A61603] | −3.92 | −3.92 ± 0.11 | 61.0 ± 3.8 | −6.52 ± 0.08 | 35.7 ± 3.7 | −5.29 ± 0.12 | 12.0 ± 3.6 | 74.8 ± 4.5% | 54.5 ± 7.9 | No response | 142.7 ± 8.7% | −5.63 ± 0.18 | 5.3 ± 0.5 | No response | −6.16 ± 0.09 | No response | No response | – | IC50 (log), ^3H‐prazosin binding (human α1B‐adrenoceptor [1]; log IC50 bound given where no KD could be determined): IC50 > −4; Log IC50 α1B, ^3H‐prazosin whole cell binding (human α1B‐adrenoceptor [1]; printed as IC50> log value): IC50 >−4; ERK1/2‐phosphorylation % PDBu at 100 µM ([8]; response at 100 µM ligand (no EC50 given)): 11.7 ± 2.9%
2 | CNC[C@H](O)c1ccc(O)c(O)c1 [Adrenaline] | – | – | 58.9 ± 3.7 | – | – | – | 30.3 ± 2.3 | 71.3% and 71.3 ± 7.7% | – | No response | 164% and 164.0 ± 7.3% | – | 172.1 ± 11.3 | No response | – | – | No response | 32.2 ± 4.0 | Kd ([2]; Log KD α1D, ^3H‐prazosin whole cell binding, CHO‐α1D cells, given as log KD (negative), mean ± SEM, 'early plateau' = specific binding not fully inhibited): 6460 nM; Intracellular calcium release % ionomycin (human α1A‐adrenoceptor [3]; listed as adrenaline): 58.9%; EC50 ([5]; log values given negative, read-out: Intracellular calcium release Log EC50 (converted)): 18.2 nM; ERK1/2‐phosphorylation % PDBu (human α1B‐adrenoceptor [7]): 76.6 ± 9.0%; EC50 ([8]; log values given negative, read-out: ERK1/2‐phosphorylation Log EC50 (converted)): 182 nM; Gi‐mediated inhibition of forskolin‐stimulated cAMP, CHO‐α1A cells (human α1A‐adrenoceptor [16]): did not inhibit cAMP accumulation; EC50 [14, 20]: 871 nM
3 | CCc1cccc(CC)c1NC1=NCCN1 [ST‐91] | −5.24 | −5.24 ± 0.09 | 64.6 ± 2.6 | −8.13 ± 0.17 | 62.0 ± 2.1 | −6.34 ± 0.15 | 6.3 ± 1.6 | 79.5 ± 5.2% | 83.6 ± 8.9 | – | 108.2 ± 12.5% | −6.52 ± 0.04 | 30.4 ± 3.5 | No response | −7.23 ± 0.07 | No response | – | 21.1 ± 4.4 | Log KD α1A, ^3H‐prazosin whole cell binding (human α1A‐adrenoceptor [17]; CHO‐α1A cells, given as log KD (negative), mean ± SEM): −5.94 ± 0.01; Affinity selectivity ratio α1A vs α1B (human α1A‐adrenoceptor [17]; higher affinity for α1A than α1B): 35.5 fold; Affinity selectivity ratio α1A vs α1D (human α1A‐adrenoceptor [17]; higher affinity for α1A than α1D): 5.0 fold; Log KD, ^3H‐prazosin binding (human α1B‐adrenoceptor [1]; whole‐cell binding (from Table 1), given as log KD (negative numbers)): −4.39; Log KD α1B, ^3H‐prazosin whole cell binding (human α1B‐adrenoceptor [1]; given as log KD (negative), mean ± SEM): −4.39 ± 0.04; Affinity selectivity ratio α1B vs α1D ([2]; higher affinity for α1D than α1B): 7.1 fold; Log efficacy ratio KD /EC50 (human α1A‐adrenoceptor [3]; binding KD and calcium EC50): 3.14; Intracellular calcium release Log EC50 (human α1A‐adrenoceptor [3]; given as log EC50 (negative)): −9.08 ± 0.11; Log efficacy ratio KD /EC50 (human α1B‐adrenoceptor [4]; intrinsic efficacy ratio, KD from binding / EC50 calcium, log): 3.74; Log efficacy ratio KD /EC50 ([5]; intrinsic efficacy ratio, binding KD / calcium EC50): 1.10; ERK1/2‐phosphorylation Log EC50 (human α1A‐adrenoceptor [6]; 2–4 min, ^b also active in parent CHO cells): −8.70 ± 0.06; ERK1/2‐phosphorylation Log EC50 (human α1B‐adrenoceptor [7]; CHO‐α1B cells, for bi‐phasic responses the initial stimulatory part): −7.33 ± 0.12; ERK1/2‐phosphorylation Log EC50 ([8]; log values given negative): −5.23 ± 0.21; cAMP accumulation Log EC50 (human α1A‐adrenoceptor [10]; 5 h): −6.80 ± 0.05; cAMP accumulation (in presence of forskolin) Log EC50 (human α1A‐adrenoceptor [16]; CHO‐α1A cells, 10 μM forskolin): −7.86 ± 0.14; cAMP accumulation (in presence of forskolin) Fold increase (human α1A‐adrenoceptor [16]; CHO‐α1A cells, fold increase of the forskolin response): 2.17 ±.10 fold; cAMP accumulation (in presence of forskolin) Fold increase (human α1B‐adrenoceptor [13]; [21]): 2.34 ± 0.09 fold; cAMP (in presence of forskolin) Fold increase [14, 21]: No response
